Assay results taken from PMC10837402, “Unnatural amino acid substitutions to improve in vivo stability and tumor uptake of ^68Ga-labeled GRPR-targeted TacBOMB2 derivatives for cancer imaging with positron emission tomography” (EJNMMI Radiopharmacy and Chemistry, 2024).
“And” between values parts separate entries of the source, which are not always exact repeats. Equal entries are not always repeated. Starred links: 1 amine or outer side, 2 acyl side, 3 side chain; linkers in the order of their positions; H or OH if unused. Non-standard residues stand in square brackets, D forms with d. Residues, ends and D or L forms follow the SMILES beside them. *: point of attachment. DOTA = O=C(O)CN1CCN(CC(=O)O)CCN(CC(=O)*)CCN(CC(=O)O)CC1; NMeH = CN[C@@H](Cc1c[nH]cn1)C(=O)O; X1 = O=C(CN1CCC(N[*:1])CC1)[*:2]; Tle = CC(C)(C)[C@H](N)C(=O)O; hSer = N[C@@H](CCO)C(=O)O; Thz = O=C(O)[C@@H]1CSCN1; Abu = CC[C@H](N)C(=O)O; Aib = CC(C)(N)C(=O)O

These compounds were tested against T1, GRPR (Homo sapiens, UniProt P30550) (assay: Fluorometric calcium release assay in PC-3 cells). Conditions: 50 nM ligand.
T1 construct: generated using GRPR-expressing PC-3 cells; endogenous in cells; host or cells: PC-3 cells
Format: cell-based
Method: The growth medium was removed and replaced with a loading buffer containing a calcium-sensitive dye (FLIPR Calcium 6 assay kit from Molecular Devices, San Jose, CA, USA). After incubated at 37 °C for 30 min, the plates were placed in a FlexStation 3 microplate reader (Molecular Devices). Tested ligands (50 nM) or DPBS (negative control) were added to the cells and the fluorescent signals were acquired for 2 min. Agonistic/antagonistic properties of the tested ligands were determined based on the relative fluorescent unit (RFU = max – min) of their generated fluorescent signals.

T1 sequence (P30550 whole entry): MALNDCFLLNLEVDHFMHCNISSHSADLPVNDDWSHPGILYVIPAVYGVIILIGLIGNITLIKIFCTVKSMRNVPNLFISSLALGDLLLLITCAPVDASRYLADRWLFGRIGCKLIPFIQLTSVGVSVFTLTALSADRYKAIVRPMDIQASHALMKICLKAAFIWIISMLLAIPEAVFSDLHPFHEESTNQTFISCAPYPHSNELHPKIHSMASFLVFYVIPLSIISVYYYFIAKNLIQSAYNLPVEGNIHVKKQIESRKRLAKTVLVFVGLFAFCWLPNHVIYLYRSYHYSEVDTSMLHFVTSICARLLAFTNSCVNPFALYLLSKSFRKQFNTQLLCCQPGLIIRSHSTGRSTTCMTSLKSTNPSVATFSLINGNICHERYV

| Compound | Ca^2+ efflux (relative fluorescence units, RFU = max – min) |
| --- | --- |
| Nc1ncnc2c1ncn2[C@@H]1O[C@H](COP(=O)(O)OP(=O)(O)OP(=O)(O)O)[C@@H](O)[C@H]1O [ATP, reference compound] | 253 ± 46.5 RFUs |
| CC(C)C[C@H](NC(=O)[C@H](Cc1c[nH]cn1)NC(=O)CNC(=O)[C@@H](NC(=O)[C@H](C)NC(=O)[C@H](Cc1c[nH]c2ccccc12)NC(=O)[C@H](CCC(N)=O)NC(=O)[C@@H](Cc1ccccc1)NC(=O)CN1CCC(NC(=O)CN2CCN(CC(=O)O)CCN(CC(=O)O)CCN(CC(=O)O)CC2)CC1)C(C)(C)C)C(=O)N1CSC[C@H]1C(N)=O [Ga-LW01108, Ga-DOTA-Pip-D-Phe-Gln-Trp-Ala-Tle-Gly-His-Leu-Thz-NH2] | 549 ± 46.7 RFUs |
| CC(C)C[C@H](NC(=O)[C@H](Cc1c[nH]cn1)N(C)C(=O)CNC(=O)[C@@H](NC(=O)[C@H](C)NC(=O)[C@H](Cc1c[nH]c2ccccc12)NC(=O)[C@H](CCC(N)=O)NC(=O)[C@@H](Cc1ccccc1)NC(=O)CN1CCC(NC(=O)CN2CCN(CC(=O)O)CCN(CC(=O)O)CCN(CC(=O)O)CC2)CC1)C(C)(C)C)C(=O)N1CSC[C@H]1C(N)=O [Ga-LW01110, Ga-DOTA-Pip-D-Phe-Gln-Trp-Ala-Tle-Gly-NMe-His-Leu-Thz-NH2] | 521 ± 43.7 RFUs |
| CC(C)C[C@H](NC(=O)[C@H](Cc1c[nH]cn1)N(C)C(=O)CNC(=O)[C@@H](NC(=O)[C@H](C)NC(=O)[C@H](Cc1c[nH]c2ccccc12)NC(=O)[C@H](Cc1c[nH]cn1)NC(=O)[C@@H](Cc1ccccc1)NC(=O)CN1CCC(NC(=O)CN2CCN(CC(=O)O)CCN(CC(=O)O)CCN(CC(=O)O)CC2)CC1)C(C)(C)C)C(=O)N1CSC[C@H]1C(N)=O [Ga-LW01142, Ga-DOTA-Pip-D-Phe-His-Trp-Ala-Tle-Gly-NMe-His-Leu-Thz-NH2] ({DOTA}-[X1][dF]HWA[Tle]G[NMeH]L[Thz]-NH2) | 559 ± 96.2 RFUs |
| Cc1ccc2[nH]cc(C[C@H](NC(=O)[C@H](CCC(N)=O)NC(=O)[C@@H](Cc3ccccc3)NC(=O)CN3CCC(NC(=O)CN4CCN(CC(=O)O)CCN(CC(=O)O)CCN(CC(=O)O)CC4)CC3)C(=O)N[C@@H](C)C(=O)N[C@H](C(=O)NCC(=O)N[C@@H](Cc3c[nH]cn3)C(=O)N[C@@H](CC(C)C)C(=O)N3CSC[C@H]3C(N)=O)C(C)C)c2c1 [Ga-LW02023, Ga-DOTA-Pip-D-Phe-Gln-5-Me-Trp-Ala-Val-Gly-His-Leu-Thz-NH2] | 312 ± 45.9 RFUs |
| Cc1[nH]c2ccccc2c1C[C@H](NC(=O)[C@H](CCC(N)=O)NC(=O)[C@@H](Cc1ccccc1)NC(=O)CN1CCC(NC(=O)CN2CCN(CC(=O)O)CCN(CC(=O)O)CCN(CC(=O)O)CC2)CC1)C(=O)N[C@@H](C)C(=O)N[C@H](C(=O)NCC(=O)N[C@@H](Cc1c[nH]cn1)C(=O)N[C@@H](CC(C)C)C(=O)N1CSC[C@H]1C(N)=O)C(C)C [Ga-LW02025, Ga-DOTA-Pip-D-Phe-Gln-2-Me-Trp-Ala-Val-Gly-His-Leu-Thz-NH2] | 197 ± 50.3 RFUs |
| CC(C)C[C@H](NC(=O)[C@H](Cc1c[nH]cn1)N(C)C(=O)CNC(=O)[C@@H](NC(=O)[C@H](C)NC(=O)[C@H](Cc1c[nH]c2c(F)cccc12)NC(=O)[C@H](CCC(N)=O)NC(=O)[C@@H](Cc1ccccc1)NC(=O)CN1CCC(NC(=O)CN2CCN(CC(=O)O)CCN(CC(=O)O)CCN(CC(=O)O)CC2)CC1)C(C)(C)C)C(=O)N1CSC[C@H]1C(N)=O [Ga-LW02040, Ga-DOTA-Pip-D-Phe-Gln-7-F-Trp-Ala-Tle-Gly-NMe-His-Leu-Thz-NH2] | 242 ± 44.1 RFUs |
| Ga-DOTA-Pip-D-Phe-Gln-7-F-Trp-Ala-Val-Gly-His-Leu-Thz-NH2 [Ga-LW02021] | 178 ± 53.7 RFUs |
| Ga-DOTA-Pip-D-Phe-Gln-Trp-Ala-Val-Gly-NMe-His-Leu-Thz-NH2 [Ga-LW01107] | 1,004 ± 32.0 RFUs |
| [D-Phe^6,Leu-NHEt^13,des-Met^14]Bombesin(6–14) [reference compound] | 38.2 ± 7.20 RFUs |
| bombesin [reference compound] | 450 ± 136 RFUs |

Each compound was assayed against T1, GRPR (assay: In vitro competition binding assay using PC-3 cells and [^125I-Tyr^4]Bombesin as the radioligand). Conditions: PC-3 cells, mean ± SD, n = 3, read-out: GRPR binding affinity (Ki).
Method: [2022], [2023]; Bratanovic et al. [2022]). The assays were conducted in triplicate with varied concentrations (10 μM to 1 pM) of tested ligands. […] The growth medium was replaced with 400 μL of reaction medium (RPMI 1640 containing 2 mg/mL BSA, and 20 mM HEPES), then the plates were incubated at 37 °C for 60 min. […] Data were analyzed using nonlinear regression with GraphPad (San Diego, CA, USA) Prism 8 software.

| Compound | Ki |
| --- | --- |
| CC(C)C[C@H](NC(=O)[C@H](Cc1c[nH]cn1)NC(=O)CNC(=O)[C@@H](NC(=O)C(C)(C)NC(=O)[C@H](Cc1c[nH]c2ccccc12)NC(=O)[C@H](CCC(N)=O)NC(=O)[C@H](N)Cc1ccccc1)C(C)C)C(=O)N1CSC[C@H]1C(N)=O [LW01075, D-Phe-Gln-Trp-Aib-Val-Gly-His-Leu-Thz-NH2] (H-[dF]QW[Aib]VGHL[Thz]-NH2) | > 0.15 µM and 2.41 µM |
| CC[C@H](NC(=O)[C@H](Cc1c[nH]c2ccccc12)NC(=O)[C@H](CCC(N)=O)NC(=O)[C@H](N)Cc1ccccc1)C(=O)N[C@H](C(=O)NCC(=O)N[C@@H](Cc1c[nH]cn1)C(=O)N[C@@H](CC(C)C)C(=O)N1CSC[C@H]1C(N)=O)C(C)C [LW01078, D-Phe-Gln-Trp-2-Abu-Val-Gly-His-Leu-Thz-NH2] (H-[dF]QW[Abu]VGHL[Thz]-NH2) | 0.0272 ± 0.00862 µM |
| CC[C@H](NC(=O)[C@H](C)NC(=O)[C@H](Cc1c[nH]c2ccccc12)NC(=O)[C@H](CCC(N)=O)NC(=O)[C@H](N)Cc1ccccc1)C(=O)NCC(=O)N[C@@H](Cc1c[nH]cn1)C(=O)N[C@@H](CC(C)C)C(=O)N1CSC[C@H]1C(N)=O [LW01083, D-Phe-Gln-Trp-Ala-2-Abu-Gly-His-Leu-Thz-NH2] | > 0.15 µM and 0.406 µM |
| CC(C)C[C@H](NC(=O)[C@H](Cc1c[nH]cn1)NC(=O)CNC(=O)[C@@H](NC(=O)[C@H](C)NC(=O)[C@H](Cc1c[nH]c2cc(Cl)ccc12)NC(=O)[C@H](CCC(N)=O)NC(=O)[C@H](N)Cc1ccccc1)C(C)C)C(=O)N1CSC[C@H]1C(N)=O [LW01137, D-Phe-Gln-6-Cl-Trp-Ala-Val-Gly-His-Leu-Thz-NH2] | > 0.15 µM and 0.829 µM |
| Cc1ccc2c(C[C@H](NC(=O)[C@H](CCC(N)=O)NC(=O)[C@H](N)Cc3ccccc3)C(=O)N[C@@H](C)C(=O)N[C@H](C(=O)NCC(=O)N[C@@H](Cc3c[nH]cn3)C(=O)N[C@@H](CC(C)C)C(=O)N3CSC[C@H]3C(N)=O)C(C)C)c[nH]c2c1 [LW01171, D-Phe-Gln-6-Me-Trp-Ala-Val-Gly-His-Leu-Thz-NH2] | > 0.15 µM and 1.45 µM |
| CC(C)C[C@H](NC(=O)[C@H](Cc1c[nH]cn1)NC(=O)CNC(=O)[C@@H](NC(=O)[C@H](C)NC(=O)[C@H](Cc1c[nH]c2ccc(O)cc12)NC(=O)[C@H](CCC(N)=O)NC(=O)[C@H](N)Cc1ccccc1)C(C)C)C(=O)N1CSC[C@H]1C(N)=O [LW01173, D-Phe-Gln-5-OH-Trp-Ala-Val-Gly-His-Leu-Thz-NH2] | > 0.15 µM and 2.03 µM |
| CC(C)C[C@H](NC(=O)[C@H](Cc1c[nH]cn1)NC(=O)CNC(=O)[C@@H](NC(=O)[C@H](C)NC(=O)[C@H]1Cc2c([nH]c3ccccc23)CN1C(=O)[C@H](CCC(N)=O)NC(=O)[C@H](N)Cc1ccccc1)C(C)C)C(=O)N1CSC[C@H]1C(N)=O [LW01191, D-Phe-Gln-D-Tpi-Ala-Val-Gly-His-Leu-Thz-NH2] | > 10 µM |
| CC(C)=C(NC(=O)[C@H](C)NC(=O)[C@H](Cc1c[nH]c2ccccc12)NC(=O)[C@H](CCC(N)=O)NC(=O)[C@H](N)Cc1ccccc1)C(=O)NCC(=O)N[C@@H](Cc1c[nH]cn1)C(=O)N[C@@H](CC(C)C)C(=O)N1CSC[C@H]1C(N)=O [LW02011, D-Phe-Gln-Trp-Ala-2,3-dehydro-Val-Gly-His-Leu-Thz-NH2] | > 10 µM |
| CC(C)C[C@H](NC(=O)[C@H](Cc1c[nH]cn1)NC(=O)CNC(=O)[C@@H](NC(=O)[C@H](C)NC(=O)[C@H](Cc1c[nH]c2ncccc12)NC(=O)[C@H](CCC(N)=O)NC(=O)[C@H](N)Cc1ccccc1)C(C)C)C(=O)N1CSC[C@H]1C(N)=O [LW02013, D-Phe-Gln-7-Aza-Trp-Ala-Val-Gly-His-Leu-Thz-NH2] | > 0.15 µM |
| CC(C)C[C@H](NC(=O)[C@H](Cc1c[nH]cn1)NC(=O)CNC(=O)[C@@H](NC(=O)[C@H](C)NC(=O)[C@H](Cc1c[nH]c2ccccc12)NC(=O)[C@H](CCC(N)=O)NC(=O)[C@H](N)Cc1ccccc1)C1CCC1)C(=O)N1CSC[C@H]1C(N)=O [LW02019, D-Phe-Gln-Trp-Ala-cyclobutaneacetic acid-Gly-His-Leu-Thz-NH2] | 0.0357 ± 0.0274 µM |
| CC(C)C[C@H](NC(=O)[C@H](Cc1c[nH]cn1)NC(=O)CNC(=O)[C@@H](NC(=O)[C@H](C)NC(=O)[C@H](Cc1c[nH]c2ccccc12)NC(=O)[C@H](CCO)NC(=O)[C@H](N)Cc1ccccc1)C(C)C)C(=O)N1CSC[C@H]1C(N)=O [LW02030, D-Phe-Hse-Trp-Ala-Val-Gly-His-Leu-Thz-NH2] (H-[dF][hSer]WAVGHL[Thz]-NH2) | > 0.15 µM and 0.196 µM |
